Results on two compounds are retold here after patent US12527872B2, “PEGylated ICD inducer-IDO inhibitor nanoconjugate, and preparation method and use thereof” (SHANDONG UNIVERSITY, priority 2019, dated 2026).

The test system of assay [1] is 4T1 cells. Kind of assay: In vivo inhibition of breast tumor growth (4T1 breast cancer model). To be noted: BALB/c mice injected with 4T1 cells, treated every three days; compared with saline control; FIG. 8. On the procedure: To evaluate the efficacy of diMT-OXA(IV)-PEG 2000 nanoconjugate in inhibiting tumor growth in vivo, a model of animal with breast cancer was established. 4T1 cells were injected intravenously in BALB/c mice. 4T1 cells spontaneously generate tumors in BALB/c mice, and the characteristics of these tumors are very similar to breast cancer in humans. The BALB/c mice injected with 4T1 cells were treated every three days with free OXA, free 1-MT, free 1-MT plus OXA, and diMT-OXA(IV)-PEG 2000 nanoconjugate, and were treated with saline as control. After the course of treatment, tumor masses were collected from the experimental mice to measure tumor volume to assess general anti-tumor effects (see […]). It can be learned from FIG. 8 that the tumor volume is reduced in mice treated with free OXA, free 1-MT, and free 1-MT plus OXA, and the tumor volume is reduced in mice treated with diMT-OXA(IV)-PEG 2000 nanoconjugate to more than about 50% of that in mice treated with saline as control.

Assay [2] has as its system 4T1 cells. The experiment in a line: In vitro anti-tumor viability test (CCK-8). The format is cell-based. To be noted: different concentrations, 48 h, CCK-8, absorbance at 450 nm; FIG. 10. How it is done: 4T1 cells were incubated in a 96-well plate (8000 cells/well) with a volume of 100 μL per well. After the incubation, the 96-well plate was placed in an incubator to culture at 37° C. under 5% CO2 overnight. 100 μL of free OXA and diMT-OXA(IV)-PEG 2000 nanoconjugate (in different concentrations) were added. After culture in the incubator at 37° C. under 5% CO2 for 48 h, 10 μL of CCK-8 solution was added into each well and then cultured in the incubator at 37° C. under 5% CO2 for 2 h. The absorbance was measured at 450 nm by an ELISA reader, and the cell viability was calculated.

Consider `Cn1cc(C[C@@H](N)C(=O)O)c2ccccc21` [free 1-MT, 1-methyl-D-tryptophan], for which, in the assay on 4T1 cells [1], the tumor volume result is recorded as “reduced”.
Regarding `O=C1[O][Pt]2([NH][C@@H]3CCCC[C@H]3[NH]2)[O]C1=O` [free OXA, oxaliplatin], in the assay with 4T1 cells [1], the tumor volume entry was “reduced”. In addition, the “inhibitory effect on the proliferation of 4T1 cells (cell viability)” value in the assay on 4T1 cells [2] is on record as “good inhibitory effect”.
